Legend:
Type in all cases: in vivo
[1] = test system: yellow nutsedge (Cyperus esculentus); assay: Test C preemergence; details: Cyperus, pre-emergence, 336 h, preemergence, scale 0 to 100, read-out: Plant response rating, Nutsedge, Yellow
How it was run: (§1)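 Greenhouse test, preemergence on seeded soil or postemergence on 1- to 4-leaf plants. Response is a visual 0-100 rating versus controls, taken 13-15 days after treatment.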

[2] = test system: blackgrass (Alopecurus myosuroides); assay: Test C preemergence; details: Alopecurus myosuroides, pre-emergence, 336 h, preemergence, scale 0 to 100, read-out: Plant response rating, Blackgrass
How it was run: as §1

[3] = test system: oilseed rape (Brassica napus); assay: Test C preemergence; details: Brassica napus, pre-emergence, preemergence, scale 0 to 100, read-out: Plant response rating, Oilseed Rape
How it was run: as §1

[4] = test system: large (Lg) crabgrass (Digitaria sanguinalis); assay: Test C postemergence; details: Digitaria sanguinalis, post-emergence, 336 h, Postemergence, scale 0 to 100, read-out: Plant response rating, Crabgrass, Large
How it was run: as §1

[5] = test system: lambsquarters (Chenopodium album); assay: Test C postemergence; details: Chenopodium album, post-emergence, 336 h, Postemergence, scale 0 to 100, read-out: Plant response rating, Lambsquarters
How it was run: as §1

[6] = test system: giant foxtail (Setaria faberii); assay: Test C postemergence; details: Setaria faberi, post-emergence, 336 h, Postemergence, scale 0 to 100, read-out: Plant response rating, Foxtail, Giant
How it was run: as §1

[7] = test system: ragweed (common ragweed, Ambrosia elatior); assay: Test C postemergence; details: Ambrosia artemisiifolia, post-emergence, 336 h, Postemergence, scale 0 to 100, read-out: Plant response rating, Ragweed
How it was run: as §1

[8] = test system: chickweed (common chickweed, Stellaria media); assay: Test C postemergence; details: Stellaria media, post-emergence, Postemergence, scale 0 to 100, read-out: Plant response rating, Chickweed
How it was run: as §1

kochia (Kochia scoparia) = assay: Test C postemergence; details: Bassia scoparia, post-emergence, Postemergence, scale 0 to 100, read-out: Plant response rating, Kochia
How it was run: as §1

[9] = test system: Italian ryegrass (Lolium multiflorum); assay: Test C postemergence; details: Lolium multiflorum, post-emergence, 336 h, Postemergence, scale 0 to 100, read-out: Plant response rating, Ryegrass, Italian
How it was run: as §1

[10] = test system: velvetleaf (Abutilon theophrasti); assay: Test C postemergence; details: Abutilon theophrasti, post-emergence, Postemergence, scale 0 to 100, read-out: Plant response rating, Velvetleaf
How it was run: as §1

[11] = test system: johnsongrass (Sorghum halepense); assay: Test C postemergence; details: Sorghum halepense, post-emergence, 336 h, Postemergence, scale 0 to 100, read-out: Plant response rating, Johnsongrass
How it was run: as §1

[12] = test system: barnyardgrass (Echinochloa crus-galli); assay: Test C postemergence; details: Echinochloa crus-galli, post-emergence, Postemergence, scale 0 to 100, read-out: Plant response rating, Barnyardgrass
How it was run: as §1

[13] = test system: galium (catchweed bedstraw, Galium aparine); assay: Test C postemergence; details: Galium, post-emergence, 336 h, Postemergence, scale 0 to 100, read-out: Plant response rating, Galium
How it was run: as §1

wild oat (Avena fatua) = assay: Test C postemergence; details: Avena fatua, post-emergence, Postemergence, scale 0 to 100, read-out: Plant response rating, Oat, Wild
How it was run: as §1

[14] = test system: yellow nutsedge (Cyperus esculentus); assay: Test C postemergence; details: Cyperus, post-emergence, 336 h, Postemergence, scale 0 to 100, read-out: Plant response rating, Nutsedge, Yellow
How it was run: as §1

[15] = test system: blackgrass (Alopecurus myosuroides); assay: Test C postemergence; details: Alopecurus myosuroides, post-emergence, 336 h, Postemergence, scale 0 to 100, read-out: Plant response rating, Blackgrass
How it was run: as §1

[16] = test system: winter wheat (Triticum aestivum); assay: Test C postemergence; details: Triticum aestivum, post-emergence, 336 h, Postemergence, scale 0 to 100, read-out: Plant response rating, Wheat
How it was run: as §1

soybean (Glycine max) = assay: Test C postemergence; details: Glycine max, post-emergence, Postemergence, scale 0 to 100, read-out: Plant response rating, Soybean
How it was run: as §1

[17] = test system: morningglory (Ipomoea coccinea); assay: Test C postemergence; details: Ipomoea, post-emergence, 336 h, Postemergence, scale 0 to 100, read-out: Plant response rating, Morningglory
How it was run: as §1

corn (Zea mays) = assay: Test C postemergence; details: Zea mays, post-emergence, 336 h, Postemergence, scale 0 to 100
How it was run: as §1

[18] = test system: oilseed rape (Brassica napus); assay: Test C postemergence; details: Brassica napus, post-emergence, Postemergence, scale 0 to 100, read-out: Plant response rating, Oilseed Rape
How it was run: as §1

For `Fc1cccc(Oc2ncc(Cl)cn2)c1Oc1ncc(Br)cn1` [Compound 27, 5-bromo-2-[2-fluoro-6-[(5-chloro-2-pyrimidinyl)oxy]phenoxy]pyrimidine], the pest or weed control at 31 g/ha ([1]; 31 g ai/ha) was 0%, the pest or weed control at 62 g/ha ([1]; 62 g ai/ha) was 0% and the pest or weed control at 125 g/ha ([1]; 125 g ai/ha) was 55%. The pest or weed control at 31 g/ha ([2]; 31 g ai/ha) was 15%, the pest or weed control at 62 g/ha ([2]; 62 g ai/ha) was 60% and the pest or weed control at 125 g/ha ([2]; 125 g ai/ha) was 90%. For the same compound, the plant injury at 31 g/ha ([3]; 31 g ai/ha) was 85%, the plant injury at 62 g/ha ([3]; 62 g ai/ha) was 100% and the plant injury at 125 g/ha ([3]; 125 g ai/ha) was 100%. It also gave a plant injury at 250 g/ha ([3]; 250 g ai/ha) of 100%, a pest or weed control at 31 g/ha ([4]; 31 g ai/ha) of 5% and a pest or weed control at 62 g/ha ([4]; 62 g ai/ha) of 5%. The pest or weed control at 125 g/ha ([4]; 125 g ai/ha) was 10%, the pest or weed control at 250 g/ha ([4]; 250 g ai/ha) was 20% and the pest or weed control at 31 g/ha ([5]; 31 g ai/ha) was 55%. It also gave a pest or weed control at 62 g/ha ([5]; 62 g ai/ha) of 65%, a pest or weed control at 125 g/ha ([5]; 125 g ai/ha) of 80% and a pest or weed control at 250 g/ha ([5]; 250 g ai/ha) of 95%. The pest or weed control at 31 g/ha ([6]; 31 g ai/ha) was 0%, the pest or weed control at 62 g/ha ([6]; 62 g ai/ha) was 5% and the pest or weed control at 125 g/ha ([6]; 125 g ai/ha) was 5%. For the same compound, the pest or weed control at 250 g/ha ([6]; 250 g ai/ha) was 10%, the pest or weed control at 31 g/ha ([7]; 31 g ai/ha) was 15% and the pest or weed control at 62 g/ha ([7]; 62 g ai/ha) was 35%. The pest or weed control at 125 g/ha ([7]; 125 g ai/ha) was 60%, the pest or weed control at 250 g/ha ([7]; 250 g ai/ha) was 80% and the pest or weed control at 31 g/ha ([8]; 31 g ai/ha) was 45%. It also gave a pest or weed control at 62 g/ha ([8]; 62 g ai/ha) of 40%, a pest or weed control at 125 g/ha ([8]; 125 g ai/ha) of 70% and a pest or weed control at 250 g/ha ([8]; 250 g ai/ha) of 80%. The pest or weed control at 31 g/ha (kochia (Kochia scoparia); 31 g ai/ha) was 40%, the pest or weed control at 62 g/ha (kochia (Kochia scoparia); 62 g ai/ha) was 80% and the pest or weed control at 125 g/ha (kochia (Kochia scoparia); 125 g ai/ha) was 85%. The pest or weed control at 250 g/ha (kochia (Kochia scoparia); 250 g ai/ha) was 95%, the pest or weed control at 31 g/ha ([9]; 31 g ai/ha) was 0% and the pest or weed control at 62 g/ha ([9]; 62 g ai/ha) was 0%. It also gave a pest or weed control at 125 g/ha ([9]; 125 g ai/ha) of 5%, a pest or weed control at 250 g/ha ([9]; 250 g ai/ha) of 5% and a pest or weed control at 31 g/ha ([10]; 31 g ai/ha) of 15%. It also gave a pest or weed control at 62 g/ha ([10]; 62 g ai/ha) of 35%, a pest or weed control at 125 g/ha ([10]; 125 g ai/ha) of 65% and a pest or weed control at 250 g/ha ([10]; 250 g ai/ha) of 65%. The pest or weed control at 31 g/ha ([11]; 31 g ai/ha) was 0%, the pest or weed control at 62 g/ha ([11]; 62 g ai/ha) was 5% and the pest or weed control at 125 g/ha ([11]; 125 g ai/ha) was 5%. The pest or weed control at 250 g/ha ([11]; 250 g ai/ha) was 10%, the pest or weed control at 31 g/ha ([12]; 31 g ai/ha) was 5% and the pest or weed control at 62 g/ha ([12]; 62 g ai/ha) was 5%. It also gave a pest or weed control at 125 g/ha ([12]; 125 g ai/ha) of 5%, a pest or weed control at 250 g/ha ([12]; 250 g ai/ha) of 5% and a pest or weed control at 31 g/ha ([13]; 31 g ai/ha) of 70%. For the same compound, the pest or weed control at 62 g/ha ([13]; 62 g ai/ha) was 90%, the pest or weed control at 125 g/ha ([13]; 125 g ai/ha) was 95% and the pest or weed control at 250 g/ha ([13]; 250 g ai/ha) was 95%. It also gave a pest or weed control at 31 g/ha (wild oat (Avena fatua); 31 g ai/ha) of 0%, a pest or weed control at 62 g/ha (wild oat (Avena fatua); 62 g ai/ha) of 5% and a pest or weed control at 125 g/ha (wild oat (Avena fatua); 125 g ai/ha) of 10%. For the same compound, the pest or weed control at 250 g/ha (wild oat (Avena fatua); 250 g ai/ha) was 15%, the pest or weed control at 31 g/ha ([14]; 31 g ai/ha) was 0% and the pest or weed control at 62 g/ha ([14]; 62 g ai/ha) was 5%. For the same compound, the pest or weed control at 125 g/ha ([14]; 125 g ai/ha) was 10%, the pest or weed control at 250 g/ha ([14]; 250 g ai/ha) was 10% and the pest or weed control at 31 g/ha ([15]; 31 g ai/ha) was 5%. For the same compound, the pest or weed control at 62 g/ha ([15]; 62 g ai/ha) was 5%, the pest or weed control at 125 g/ha ([15]; 125 g ai/ha) was 5% and the pest or weed control at 250 g/ha ([15]; 250 g ai/ha) was 5%. The plant injury at 31 g/ha ([16]; 31 g ai/ha) was 0%, the plant injury at 62 g/ha ([16]; 62 g ai/ha) was 0% and the plant injury at 125 g/ha ([16]; 125 g ai/ha) was 0%. It also gave a plant injury at 250 g/ha ([16]; 250 g ai/ha) of 0%, a plant injury at 31 g/ha (soybean (Glycine max); 31 g ai/ha) of 65% and a plant injury at 62 g/ha (soybean (Glycine max); 62 g ai/ha) of 75%. The plant injury at 125 g/ha (soybean (Glycine max); 125 g ai/ha) was 90%, the plant injury at 250 g/ha (soybean (Glycine max); 250 g ai/ha) was 90% and the pest or weed control at 31 g/ha ([17]; 31 g ai/ha) was 65%. For the same compound, the pest or weed control at 62 g/ha ([17]; 62 g ai/ha) was 75%, the pest or weed control at 125 g/ha ([17]; 125 g ai/ha) was 70% and the pest or weed control at 250 g/ha ([17]; 250 g ai/ha) was 90%. The Corn plant response rating (crop injury, 0 = no effect, 100 = complete kill) at 31 g/ha (corn (Zea mays); 31 g ai/ha) was 10%, the Corn plant response rating (crop injury, 0 = no effect, 100 = complete kill) at 62 g/ha (corn (Zea mays); 62 g ai/ha) was 15% and the Corn plant response rating (crop injury, 0 = no effect, 100 = complete kill) at 125 g/ha (corn (Zea mays); 125 g ai/ha) was 20%. For the same compound, the Corn plant response rating (crop injury, 0 = no effect, 100 = complete kill) at 250 g/ha (corn (Zea mays); 250 g ai/ha) was 25%, the plant injury at 31 g/ha ([18]; 31 g ai/ha) was 30% and the plant injury at 62 g/ha ([18]; 62 g ai/ha) was 50%. It also gave a plant injury at 125 g/ha ([18]; 125 g ai/ha) of 55% and a plant injury at 250 g/ha ([18]; 250 g ai/ha) of 60%.
